Values of other authors in paper PMC3845493 (Molecular pharmaceutics, 2013).

PARVGLGITTVLTMTTQSSGSRA [Peptide M2GlyR]
Aggregation in aqueous solutions: tendency to aggregate in aqueous solutions
